Assay results taken from patent US20250197374A1, “WEE1 DEGRADING COMPOUNDS AND USES THEREOF” (BRISTOL-MYERS SQUIBB COMPANY, priority 2023, published 2025).

Key:
Type in all cases: cell-based
[1] = biological target: T1, WEE1 (Homo sapiens, UniProt P30291+Q96SW2); test: WEE1-ePL degradation assay (293T-LentiX, InCELL Hunter luminescence, 4 hr); details: for DC50: LentiX-HEK293T cells expressing WEE1-ePL, 4 hr incubation, read-out: 293T-LentiX WEE1-ePL Degradation 4 hr EC50; for 293T-LentiX WEE1-ePL Degradation 4 hr YMin (%): lower limit of fit, % of DMSO control signal remaining
T1 construct: C-terminal ePL-tagged (DiscoverX, Fremont, CA) full-length WEE1 expression construct; expressed in transfected cells; host or cells: LentiX-HEK293T (Invitrogen), lentivirally transduced; the cells also over-express GSPT1-GN
Description: To generate LentiX-WEE1-ePL-GSPT1-ND cells for the WEE1 degradation assay, LentiX-HEK293T (Invitrogen) were tranduced by lentivirus with a C-terminal ePL-tagged (DiscoverX, Fremont, CA) full-length WEE1 expression construct. A separate lentiviral construct was introduced to over-express a mutated form of GSPT1 (NP_002085), termed GSPT1-GN, which contains a G575N mutation and is further truncated in the first 158 amino acids. GSPT1-GN is functional but not degradable by Cereblon. Cells were selected and maintained in complete DMEM media (DMEM, 10% Heat Inactivated FBS, 400 μg/mL Geneticin, and 1 μg/mL puromycin at 37 C and 5% CO2). Cells were passaged every 3-4 days by reseeding 1×10^6 cells in a T150 flask.
Cells were dispensed into 384-well white plates (Corning #3570, NY) that were pre-spotted with compounds using an acoustic dispenser (Echo acoustic transfer system, Beckman Coulter Life Sciences, Carlsbad, CA) as a 10-point dose-response curve with a 3-fold dilution starting at either 1 uM or 10 uM and including a DMSO control. Twenty-five microliters of media containing 2500 cells for LentiX-oeWEE1-ePL was dispensed per well. Assay plates were incubated at 37° C. with 5% CO2 for four hours (WEE1) After incubation, 25 μL of the InCELL Hunter™ Detection Reagent Working Solution (DiscoverX, Fremont, CA) was added to each well and incubated at room temperature for 30 minutes protected from light. After 30 minutes, luminescence was read on a PHERAstar luminometer (Cary, NC).
To determine the half-maximal effective concentration (EC50) values for WEE1-ePL degradation, a four parameter logistic model was used: (Sigmoidal Dose-Response Model) (FIT=(A+((B−A)/1+((C/x)^D)))) where C is the inflection point (EC50), D is the Hill slope, and A and B are the low and high limits of the fit respectively). The lower limit of the fit (value A) is referred to as Ymin. […] The maximum limit constraint, Ymax, is similarly derived using DMSO control. The curves were processed and evaluated using Activity Base (IDBS, Alameda, CA) or using Dotmatics (Boston, MA).

[2] = test system: MKN45 cells; test: MKN45 cell proliferation assay (Cell-Titer-Glo, 120 hr); details: for EC50: Homo sapiens, MKN-45, 120 h, read-out: MKN45 Cell Prolif. 120 hr EC50; for MKN45 Cell Prolif. 120 hr YMin (%): minimal percent of DMSO control observed
Description: (§1) MKN45 cells were obtained from Celgene internal cell banks and cultured in RPMI complete media (RPMI-1640, 1× Penicillin/Streptomycin, 1× glutamine, 1× Sodium Pyruvate, Non-essential Amino Acids, 10% Fetal Bovine serum, all component from Thermo-Fisher). MDA-MB-231 cells were obtained from the ATCC (HTB-26) and cultured in RPMI-1640 and 10% Fetal Bovine serum; MDA-MB-231 cells were expanded and stored as aliquots in liquid nitrogen in Celgene internal cell banks. Compounds were dispensed into 384-well plates using an HP DE300 compound printer in triplicate with 8 compounds on each plate. Compounds were dispensed into 384-well black clear bottom plates (Corning #3764BC) using an EDC acoustic dispenser at BMS. For each compound, a 10-point dose response was printed at half-log dilutions starting at either 1 uM or 10 uM in triplicate for MKN45 cells and in duplicate for MDA-MB-231 cells. The DMSO concentration was kept constant for a final assay concentration of 0.1% per well assuming 50 ul final media volume. Compound plates were sealed and frozen at −20 C until use.
(§2) For each assay batch, compound plates were thawed and allowed to reach room temperature, and cells were seeded at 400 MKN45 cells per well, or 800 MDA-MB-231 cells per well, in 50 ul media listed above for each cell line. After 120 hours of incubation at 37 C and 5% CO2, cells were lysed by addition of 25 μL of Cell-Titer-Glo Reagent (Promega Corporation, Madison, WI), as per manufacturer's instructions, protected from light, shaken for 45 minutes, and total luminescence read by a Perkin Elmer Envision plate reader. Total luminescence signal is linearly correlated with cell number remaining in the well.
(§3) Luminescence data was processed per plate by subtracting reagent-only “blank” well luminescence from all measured values and calculating a percent of DMSO control value for each treatment well. Then, to determine the half-maximal effective concentration (EC50) values for cell growth inhibition, a four parameter logistic model was fit to the data for each DMSO-normalized compound: Sigmoidal Dose-Response Model: (FIT=(A+((B−A)/1+((C/x)^D)))) where C is the inflection point ([…]), D is the Hill slope, and A and B are the low and high limits of the fit respectively. The lower limit of the fit (value A) is referred to as Ymin-calculated. The minimal percent of DMSO control that is observed in the concentrations tested for each compound is labeled as “Ymin-obs”, and was recorded and reported in the tables. Sigmoidal fit curves were processed and evaluated using Activity Base (IDBS, Alameda, CA) or using Dotmatics (Boston, MA). N/A=not available at the present time.

[3] = test system: MDA-MB-231 cells; test: MDA-MB-231 cell proliferation assay (Cell-Titer-Glo, 120 hr); details: for EC50: Homo sapiens, MDA-MB-231, 120 h, read-out: MDA-MB 231 Cell Prolif. 120 hr EC50; for MDA-MB 231 Cell Prolif. 120 hr YMin (%): minimal percent of DMSO control observed
Description: as §1, §2, §3

T1 sequence (P30291 whole entry): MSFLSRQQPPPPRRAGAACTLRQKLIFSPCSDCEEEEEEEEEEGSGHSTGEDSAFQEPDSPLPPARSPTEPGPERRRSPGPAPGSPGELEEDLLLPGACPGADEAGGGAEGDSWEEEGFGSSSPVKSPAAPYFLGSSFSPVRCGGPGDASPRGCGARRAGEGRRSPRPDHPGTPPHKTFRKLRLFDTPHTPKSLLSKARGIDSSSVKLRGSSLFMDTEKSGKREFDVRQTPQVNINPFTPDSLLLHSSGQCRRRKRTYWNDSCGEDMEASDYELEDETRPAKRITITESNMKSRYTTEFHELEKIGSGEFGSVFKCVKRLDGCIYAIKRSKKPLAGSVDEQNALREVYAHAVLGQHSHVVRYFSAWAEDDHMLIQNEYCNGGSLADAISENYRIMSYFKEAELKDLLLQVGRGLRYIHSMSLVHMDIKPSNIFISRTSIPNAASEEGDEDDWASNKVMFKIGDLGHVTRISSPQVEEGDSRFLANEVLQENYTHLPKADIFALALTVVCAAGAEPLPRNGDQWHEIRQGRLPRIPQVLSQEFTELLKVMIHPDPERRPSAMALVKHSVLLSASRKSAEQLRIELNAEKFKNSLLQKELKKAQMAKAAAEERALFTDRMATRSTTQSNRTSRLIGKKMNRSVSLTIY
T1 sequence (Q96SW2 whole entry): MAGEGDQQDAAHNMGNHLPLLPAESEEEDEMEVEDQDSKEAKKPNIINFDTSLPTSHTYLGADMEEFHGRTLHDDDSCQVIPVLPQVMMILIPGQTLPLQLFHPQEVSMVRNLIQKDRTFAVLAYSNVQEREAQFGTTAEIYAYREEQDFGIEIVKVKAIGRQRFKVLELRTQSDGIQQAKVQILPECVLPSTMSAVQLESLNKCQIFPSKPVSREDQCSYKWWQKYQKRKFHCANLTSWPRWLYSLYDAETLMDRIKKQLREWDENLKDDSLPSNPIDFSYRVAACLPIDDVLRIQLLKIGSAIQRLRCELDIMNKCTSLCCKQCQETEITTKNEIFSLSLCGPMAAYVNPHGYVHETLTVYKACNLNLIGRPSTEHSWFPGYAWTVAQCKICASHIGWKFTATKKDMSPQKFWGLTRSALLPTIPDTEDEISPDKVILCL
T1 sequence (Q16531 whole entry partner): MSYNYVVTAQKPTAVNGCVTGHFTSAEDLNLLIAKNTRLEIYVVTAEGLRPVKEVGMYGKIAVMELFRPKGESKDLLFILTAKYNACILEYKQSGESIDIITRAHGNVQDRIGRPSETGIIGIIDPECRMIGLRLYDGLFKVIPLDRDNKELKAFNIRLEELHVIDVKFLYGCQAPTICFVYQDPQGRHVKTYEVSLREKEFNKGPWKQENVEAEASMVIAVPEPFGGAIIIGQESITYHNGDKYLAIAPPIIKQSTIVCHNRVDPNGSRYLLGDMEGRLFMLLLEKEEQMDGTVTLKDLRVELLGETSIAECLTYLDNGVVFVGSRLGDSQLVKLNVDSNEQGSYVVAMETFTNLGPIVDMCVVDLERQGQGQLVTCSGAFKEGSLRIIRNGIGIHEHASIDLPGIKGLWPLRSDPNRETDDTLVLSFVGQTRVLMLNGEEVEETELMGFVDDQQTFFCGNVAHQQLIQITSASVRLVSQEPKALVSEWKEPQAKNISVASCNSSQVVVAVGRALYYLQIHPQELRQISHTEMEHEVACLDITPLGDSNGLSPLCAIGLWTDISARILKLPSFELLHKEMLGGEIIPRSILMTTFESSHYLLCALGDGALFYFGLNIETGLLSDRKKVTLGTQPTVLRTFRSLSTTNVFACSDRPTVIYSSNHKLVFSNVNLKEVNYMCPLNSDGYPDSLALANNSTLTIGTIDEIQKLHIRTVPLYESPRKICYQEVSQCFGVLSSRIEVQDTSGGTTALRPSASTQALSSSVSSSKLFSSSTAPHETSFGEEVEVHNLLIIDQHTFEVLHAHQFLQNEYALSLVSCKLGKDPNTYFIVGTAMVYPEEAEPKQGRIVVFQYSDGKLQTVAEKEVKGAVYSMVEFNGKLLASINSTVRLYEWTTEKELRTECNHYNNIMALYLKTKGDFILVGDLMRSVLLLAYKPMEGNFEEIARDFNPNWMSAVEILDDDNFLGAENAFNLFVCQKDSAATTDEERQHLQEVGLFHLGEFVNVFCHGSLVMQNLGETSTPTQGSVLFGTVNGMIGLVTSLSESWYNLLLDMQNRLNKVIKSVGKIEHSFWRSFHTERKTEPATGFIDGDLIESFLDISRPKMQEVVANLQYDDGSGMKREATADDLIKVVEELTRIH

Compound | DC50 [1] [nM] | 293T-LentiX WEE1-ePL Degradation 4 hr YMin (%) [1] [%] | EC50 [2] [nM] | MKN45 Cell Prolif. 120 hr YMin (%) [2] [%] | EC50 [3] [nM] | MDA-MB 231 Cell Prolif. 120 hr YMin (%) [3] [%]
O=C1CC[C@H](N2Cc3cc(O[C@H]4CCN(Cc5ccc6nc([C@@H]7CCO[C@]8(CCOC8)C7)ccc6c5)C4)ccc3C2=O)C(=O)N1 (relative stereo) [Example 21, rel-(3S)-3-(5-(((3S)-1-((2-(2,6-dioxaspiro[4.5]decan-9-yl)quinolin-6-yl)methyl)pyrrolidin-3-yl)oxy)-1-oxoisoindolin-2-yl)piperidine-2,6-dione] | 1 | 29.8 | 2 | 9.9 | 129 | 41.9
O=C1CC[C@H](N2Cc3cc(O[C@H]4CCN(Cc5ccc6nc([C@H]7CCO[C@@]8(CCOC8)C7)ccc6c5)C4)ccc3C2=O)C(=O)N1 (relative stereo) [Example 22, rel-(3S)-3-(5-(((3S)-1-((2-(2,6-dioxaspiro[4.5]decan-9-yl)quinolin-6-yl)methyl)pyrrolidin-3-yl)oxy)-1-oxoisoindolin-2-yl)piperidine-2,6-dione] | 1 | 31.3 | 2 | 10.8 | 39 | 42.5
O=C1CC[C@H](N2Cc3cc(O[C@H]4CCN(Cc5ccc6nc([C@H]7CCO[C@]8(CCOC8)C7)ccc6c5)C4)ccc3C2=O)C(=O)N1 (relative stereo) [Example 23, rel-(3S)-3-(5-(((3S)-1-((2-(2,6-dioxaspiro[4.5]decan-9-yl)quinolin-6-yl)methyl)pyrrolidin-3-yl)oxy)-1-oxoisoindolin-2-yl)piperidine-2,6-dione] | 2 | 33.5 | 6 | 11.8 | 82 | 56.9
COC[C@@H]1CN(Cc2cc(F)c3nc(C4CCC(O)CC4)ncc3c2)C[C@H]1Oc1ccc2c(c1)CN([C@H]1CCC(=O)NC1=O)C2=O (relative stereo) [Example 50, rel-(S)-3-(5-(((3S,4S)-1-((8-fluoro-2-(4-hydroxycyclohexyl)quinazolin-6-yl)methyl)-4-(methoxymethyl)pyrrolidin-3-yl)oxy)-1-oxoisoindolin-2-yl)piperidine-2,6-dione] | 3 | 19.8 | 7 | 8.7 | 17 | 19.3
COC[C@@H]1CN(Cc2cc3ccc(C4CCC(O)CC4)cc3cn2)C[C@H]1Oc1ccc2c(c1)CN([C@H]1CCC(=O)NC1=O)C2=O (relative stereo) [Example 51, rel-(S)-3-(5-(((3S,4S)-1-((7-(4-hydroxycyclohexyl)isoquinolin-3-yl)methyl)-4-(methoxymethyl)pyrrolidin-3-yl)oxy)-1-oxoisoindolin-2-yl)piperidine-2,6-dione] | 1 | 29.0 | 1 | 9.9 | 15 | 24.8
COC[C@@H]1CN(Cc2cc(F)c3nc(C4CC(C)OC(C)C4)ccc3c2)C[C@H]1Oc1ccc2c(c1)CN([C@H]1CCC(=O)NC1=O)C2=O (relative stereo) [Example 52, re1-(3S)-3-(5-{[(3S,4S)-1-{[2-(2,6-dimethyloxan-4-yl)-8-fluoroquinolin-6-yl]methyl}-4-(methoxymethyl)pyrrolidin-3-yl]oxy}-1-oxo-2,3-dihydro-1H-isoindol-2-yl)piperidine-2,6-dione] | 1 | 27.2 | 1 | 8.3 | 12 | 16.7
COC[C@@H]1CN(Cc2cc(F)c3nc(C4CCC(O)CC4)ccc3c2)C[C@H]1Oc1ccc2c(c1)CN([C@H]1CCC(=O)NC1=O)C2=O (relative stereo) [Example 54, rel-(S)-3-(5-(((3S,4S)-1-((8-fluoro-2-(4-hydroxycyclohexyl)quinolin-6-yl)methyl)-4-(methoxymethyl)pyrrolidin-3-yl)oxy)-1-oxoisoindolin-2-yl)piperidine-2,6-dione] |  | 31.2 |  | 10.5 | 9 | 48.9
COC[C@@H]1CN(Cc2cc(F)c3nc(C4CCC(C(C)(C)O)CC4)ccc3c2)C[C@H]1Oc1ccc2c(c1)CN([C@H]1CCC(=O)NC1=O)C2=O (relative stereo) [Example 57, rel-(S)-3-(5-(((3S,4S)-1-((8-fluoro-2-(4-(2-hydroxypropan-2-yl)cyclohexyl)quinolin-6-yl)methyl)-4-(methoxymethyl)pyrrolidin-3-yl)oxy)-1-oxoisoindolin-2-yl)piperidine-2,6-dione] |  | 30.3 |  | 8.0 | 11 | 13.2
COC[C@@H]1CN(Cc2cc(F)c3nc(C4CCCO4)ccc3c2)C[C@H]1Oc1ccc2c(c1)CN(C1CCC(=O)NC1=O)C2=O (relative stereo) [Example 65, rel-(3S)-3-(5-(((3S,4S)-1-((8-fluoro-2-(tetrahydrofuran-2-yl)quinolin-6-yl)methyl)-4-(methoxymethyl)pyrrolidin-3-yl)oxy)-1-oxoisoindolin-2-yl)piperidine-2,6-dione] | 1 | 27.3 | 2 | 8.1 |  | 94.2
COC[C@@H]1CN(Cc2cc(F)c3nc(C4CCCN4C)ccc3c2)C[C@H]1Oc1ccc2c(c1)CN([C@H]1CCC(=O)NC1=O)C2=O (relative stereo) [Example 66, rel-(3S)-3-(5-(((3S,4S)-1-((8-fluoro-2-(1-methylpyrrolidin-2-yl)quinolin-6-yl)methyl)-4-(methoxymethyl)pyrrolidin-3-yl)oxy)-1-oxoisoindolin-2-yl)piperidine-2,6-dione] | 3 | 32.7 | 5 | 13.9 | 107 | 57.1
